Assay results from patent US12600721B2, “TYK2 inhibitors and uses thereof” (Sudo Biosciences Limited, priority 2021, dated 2026).

Legend:
TYK2 Pseudokinase (JH2) [1] = experiment: HEK-Blue IL-23 reporter assay (SEAP) for profiling TYK2 pseudokinase (JH2) inhibition; format: cell-based; details: HEK-Blue IL-23 cells, 10 ng/mL human recombinant IL-23, SEAP reporter; read-out: IL23 IC50 (TYK2 inhibitory activity)
Method: (§1) HEK-Blue™ IL-23 and IFNα/β cells with a stably-integrated cytokine receptor and STAT3 or STAT1 express STAT-inducible secreted embryonic alkaline phosphatase (SEAP) reporter gene upon cytokine stimulation. These cells are plated in DMEM (Gibco) containing 10% heat-inactivated FBS (Gibco) and 100 U/mL PenStrep (Gibco) at 37° C. under 5% CO2 conditions for 20-22 hours. The cells are then pretreated with serially diluted test compounds for 60 min prior to stimulation with either 10 ng/mL human recombinant IL-23 (Miltenyl Biotech) or 1 ng/mL human recombinant IFNα (InvivoGen) for 22-24 hours for IL-23 or 16-18 h for IFNα. SEAP induction is measured using the QUANTI Blue™ Solution (InvivoGen) according to the manufacturer's instructions.

[2] = test system: HEK-Blue IFNγ reporter cells; experiment: HEK-Blue IFNγ reporter assay (SEAP) for determining selectivity; format: cell-based; details: 50 ng/ml human recombinant IFNγ, read-out: IFN-γ IC50 (SEAP selectivity)
Method: (§2) HEK-Blue™ IL-2 and IFNγ reporter cells with a stably-integrated cytokine receptor and STAT5 or STAT1 express STAT-inducible secreted embryonic alkaline phosphatase (SEAP) reporter gene upon cytokine stimulation. These cells were plated in DMEM (Gibco) containing 10% heat-inactivated FBS (Gibco) and 100 U/mL PenStrep (Gibco) at 37° C. under 5% CO2 conditions for 20-22 hours. The cells were then pretreated with serially diluted test compounds for 60 min prior to stimulation with either 4 ng/ml human recombinant IL-2 (Miltenyl Biotech) or 50 ng/ml human recombinant IFNγ (InvivoGen) for 24 hours. SEAP induction was measured using the QUANTI-Blue™ Solution (InvivoGen) according to the manufacturer's instructions.

TYK2 Pseudokinase (JH2) [3] = experiment: HEK-Blue IFNα/β reporter assay (SEAP) for profiling TYK2 pseudokinase (JH2) inhibition; format: cell-based; details: HEK-Blue IFNα/β cells, 1 ng/mL human recombinant IFNα, read-out: IFNα IC50 (TYK2 inhibitory activity)
Method: as §1

JAK3-JH1 = target: T1, JAK3-JH1 (Homo sapiens, UniProt P52333); experiment: HTRF-based selectivity assay, JAK3 catalytic domain; format: biochemical; details: kinase domain (JH1), 2.12 μM ATP
T1 construct: using a recombinant purified His or GST-tagged catalytic domain for each enzyme; purchased Carna biosciences 08-046
T1 sequence (P52333 822-1111 limits assumed): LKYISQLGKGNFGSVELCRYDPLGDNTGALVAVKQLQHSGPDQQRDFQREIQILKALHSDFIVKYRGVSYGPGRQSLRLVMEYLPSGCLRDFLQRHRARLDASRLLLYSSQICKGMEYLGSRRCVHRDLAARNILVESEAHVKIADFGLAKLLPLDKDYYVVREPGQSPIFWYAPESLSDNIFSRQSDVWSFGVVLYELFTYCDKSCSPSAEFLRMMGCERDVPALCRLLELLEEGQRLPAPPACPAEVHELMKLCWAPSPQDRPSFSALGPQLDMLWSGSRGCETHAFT
Method: (§3) The ability of compounds to inhibit the activity of JAK1, JAK2, JAK3 and TYK2 is measured using a recombinant purified His or GST-tagged catalytic domain for each enzyme (JAK1, JAK2 and TYK2 are generated in-house; JAK3 was purchased from Carna biosciences, Cat #08-046) in an HTRF format biochemical assay. The reactions employs a commercial peptide substrate from Cisbio (Cat #62TK0PEC). The basic assay protocol is as follows: first, 2.5 μL of diluted compounds (4×) in DMSO are dispensed into a 384-well Optiplate. Next, 2.5 μL of enzyme (final concentrations for enzymes are: TYK2-700 ng/mL, JAK1-80.6 ng/ml, JAK2-2.1 ng/ml and JAK3-171.8 ng/mL) is added and incubated at RT for 5-20 min. Finally, 5 μl of mixture of 2×ATP [Final concentration 20 μM for TYK2, 21.43 μM for JAK1, 14.7 μM for JAK2 and 2.12 μM for JAK3]+2× Substrate [Final concentration 217 nM for TYK2, 454.7 nM for JAK1, 200 nM for JAK2 and 257.4 nM for JAK3] is added to 384 well Optiplate. Composition of Kinase assay buffer used in the assay is as follows: HEPES 50 mM, EGTA 1 mM, MgCl2 10 mM, DTT 2 mM, Tween-20 0.01% and water. Then the plates are shaken and then incubated at 26.5° C. for 60 min.

JAK2-JH1 = target: T2, JAK2-JH1 (Homo sapiens, UniProt O60674); experiment: HTRF-based selectivity assay, JAK2 catalytic domain; format: biochemical; details: kinase domain (JH1), 14.7 μM ATP
T2 construct: using a recombinant purified His or GST-tagged catalytic domain for each enzyme; made in house
T2 sequence (O60674 849-1124 limits assumed): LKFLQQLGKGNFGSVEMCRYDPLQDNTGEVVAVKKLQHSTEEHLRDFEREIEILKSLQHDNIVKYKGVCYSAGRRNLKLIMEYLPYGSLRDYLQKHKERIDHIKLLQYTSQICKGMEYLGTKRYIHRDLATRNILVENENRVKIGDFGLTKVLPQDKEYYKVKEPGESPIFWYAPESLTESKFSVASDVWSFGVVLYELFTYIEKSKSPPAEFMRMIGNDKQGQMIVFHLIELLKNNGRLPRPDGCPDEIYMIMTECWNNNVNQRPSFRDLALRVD
Method: as §3

TYK2-JH1 = target: T3, TYK2-JH1 (Homo sapiens, UniProt P29597); experiment: HTRF-based selectivity assay, TYK2 catalytic domain; format: biochemical; details: kinase domain (JH1), 20 μM ATP
T3 construct: using a recombinant purified His or GST-tagged catalytic domain for each enzyme; made in house
T3 sequence (P29597 897-1176 limits assumed): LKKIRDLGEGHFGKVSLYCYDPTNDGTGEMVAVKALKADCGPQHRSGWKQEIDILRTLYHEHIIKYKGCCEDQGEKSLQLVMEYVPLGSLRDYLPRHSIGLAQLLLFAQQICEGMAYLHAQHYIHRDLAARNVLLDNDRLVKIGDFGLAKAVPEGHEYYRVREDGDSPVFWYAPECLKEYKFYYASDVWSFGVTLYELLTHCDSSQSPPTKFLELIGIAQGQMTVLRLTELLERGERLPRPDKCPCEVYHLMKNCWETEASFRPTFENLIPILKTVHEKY
Method: as §3

[4] = test system: HEK-Blue IL-2 reporter cells; experiment: HEK-Blue IL-2 reporter assay (SEAP) for determining selectivity; format: cell-based; details: HEK-Blue IL-2 cells, 4 ng/ml human recombinant IL-2, SEAP reporter
Method: as §2

JAK1-JH1 = target: T4, JAK1-JH1 (Homo sapiens, UniProt P23458); experiment: HTRF-based selectivity assay, JAK1 catalytic domain; format: biochemical; details: kinase domain (JH1), 21.43 μM ATP
T4 construct: using a recombinant purified His or GST-tagged catalytic domain for each enzyme; made in house
T4 sequence (P23458 875-1153 limits assumed): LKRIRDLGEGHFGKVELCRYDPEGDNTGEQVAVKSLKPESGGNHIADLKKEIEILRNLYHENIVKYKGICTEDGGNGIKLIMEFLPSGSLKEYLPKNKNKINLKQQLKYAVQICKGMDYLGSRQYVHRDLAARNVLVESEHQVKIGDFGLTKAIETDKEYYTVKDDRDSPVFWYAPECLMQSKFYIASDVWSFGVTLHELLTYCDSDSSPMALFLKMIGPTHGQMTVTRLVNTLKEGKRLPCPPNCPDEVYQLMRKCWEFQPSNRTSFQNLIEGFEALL
Method: as §3

Structure (SMILES) | IC50 (TYK2 Pseudokinase (JH2) [1]) [nM] | IC50 [2] [nM] | IC50 (TYK2 Pseudokinase (JH2) [3]) [nM] | IC50 (JAK3-JH1) [nM] | IC50 (JAK2-JH1) [nM] | IC50 (TYK2-JH1) [nM] | IC50 [4] [nM] | IC50 (JAK1-JH1) [nM]
[2H]C([2H])([2H])NC(=O)c1nnc(NC(=O)C2CC2)cc1Nc1cccc2c1N(C)Cc1nccnc1-2 [Compound 16, 6-(cyclopropanecarboxamido)-N-(methyl-d3)-4-((6-methyl-5,6-dihydropyrazino[2,3-c]quinolin-7-yl)amino)pyridazine-3-carboxamide] | < 30 | 30 to 300 | < 30 | > 1000 | > 1000 | > 1000 | > 1000 | > 1000
[2H]C([2H])([2H])NC(=O)c1cnc(NC(=O)C2CC2)cc1Nc1cccc2c1N(C)Cc1cncnc1-2 [Compound 4, 6-(cyclopropanecarboxamido)-N-(methyl-d3)-4-((6-methyl-5,6-dihydropyrimido[5,4-c]quinolin-7-yl)amino)nicotinamide] | < 30 | > 1000 | < 30 | > 1000 | > 1000 | > 1000 | > 1000 | 300 to 1000
[2H]C([2H])([2H])NC(=O)c1nnc(NC(=O)C2CC2)cc1Nc1cccc2c1N(C)C([2H])([2H])c1ccc(C(F)(F)F)nc1-2 [Compound 26, 6-(cyclopropanecarboxamido)-N-(methyl-d3)-4-((6-methyl-2-(trifluoromethyl)-5,6-dihydrobenzo[h][1,6]naphthyridin-7-yl-5,5-d2)amino)pyridazine-3-carboxamide] | 300 to 1000 | 30 to 300 | > 1000 |  |  |  | > 1000 | 
[2H]C([2H])([2H])NC(=O)c1cnc(NC(=O)C2CC2)cc1Nc1cccc2c1N(C)Cc1cnn(C)c(=O)c1-2 [Compound 28, 6-(cyclopropanecarboxamido)-4-((2,6-dimethyl-1-oxo-1,2,5,6-tetrahydropyridazino[4,5-c]quinolin-7-yl)amino)-N-(methyl-d3)nicotinamide] | < 30 | 30 to 300 | < 30 | > 1000 | > 1000 | > 1000 | > 1000 | > 1000
[2H]C([2H])([2H])NC(=O)c1cnc(NC(=O)C2CC2)cc1Nc1cccc2c1N(C)Cc1cc(F)cnc1-2 [Compound 5, 6-(cyclopropanecarboxamido)-4-((3-fluoro-6-methyl-5,6-dihydrobenzo[h][1,6]naphthyridin-7-yl)amino)-N-(methyl-d3)nicotinamide] | < 30 | > 1000 | < 30 | > 1000 | > 1000 | > 1000 | > 1000 | > 1000
[2H]C([2H])([2H])NC(=O)c1nnc(NC(=O)C2CC2)cc1Nc1cccc2c1N(C)C([2H])([2H])c1ccc(C)nc1-2 [Compound 23, 6-(cyclopropanecarboxamido)-4-((2,6-dimethyl-5,6-dihydrobenzo[h][1,6]naphthyridin-7-yl-5,5-d2)amino)-N-(methyl-d3)pyridazine-3-carboxamide] | < 30 | 30 to 300 | < 30 |  |  |  | > 1000 | 
[2H]C([2H])([2H])NC(=O)c1nnc(NC(=O)C2CC2)cc1Nc1cccc2c1N(C)C([2H])([2H])c1cc(F)cnc1-2 [Compound 21, 6-(cyclopropanecarboxamido)-4-((3-fluoro-6-methyl-5,6-dihydrobenzo[h][1,6]naphthyridin-7-yl-5,5-d2)amino)-N-(methyl-d3)pyridazine-3-carboxamide] | < 30 | 30 to 300 | 30 to 300 |  |  |  | 300 to 1000 | 
[2H]C([2H])([2H])NC(=O)c1cnc(NC(=O)C2CC2)cc1Nc1nccc2c1N(C)Cc1nccnc1-2 [Compound 14, 6-(cyclopropanecarboxamido)-N-(methyl-d3)-4-((6-methyl-5,6-dihydropyrazino[2,3-c][1,7]naphthyridin-7-yl)amino)nicotinamide] | < 30 |  | < 30 |  |  |  | > 1000 | 
[2H]C([2H])([2H])NC(=O)c1cnc(NC(=O)C2CC2)cc1Nc1nccc2c1N(C)Cc1cccnc1-2 [Compound 19, 6-(cyclopropanecarboxamido)-N-(methyl-d3)-4-((6-methyl-5,6-dihydropyrido[3,4-h][1,6]naphthyridin-7-yl)amino)nicotinamide] | < 30 | 300 to 1000 | < 30 |  |  |  | > 1000 | 
[2H]C([2H])([2H])NC(=O)c1cnc(NC(=O)C2CC2)cc1Nc1cccc2c1N(C)C([2H])([2H])c1cc(F)cnc1-2 [Compound 22, 6-(cyclopropanecarboxamido)-4-((3-fluoro-6-methyl-5,6-dihydrobenzo[h][1,6]naphthyridin-7-yl-5,5-d2)amino)-N-(methyl-d3)nicotinamide] | < 30 |  | 30 to 300 |  |  |  |  | 
[2H]C([2H])([2H])NC(=O)c1cnc(NC(=O)C2CC2)cc1Nc1cccc2c1N(C)C([2H])([2H])c1ccc(C)nc1-2 [Compound 24, 6-(cyclopropanecarboxamido)-4-((2,6-dimethyl-5,6-dihydrobenzo[h][1,6]naphthyridin-7-yl-5,5-d2)amino)-N-(methyl-d3)nicotinamide] | < 30 | > 1000 | 30 to 300 |  |  |  | > 1000 | 
[2H]C([2H])([2H])NC(=O)c1cnc(NC(=O)C2CC2)cc1Nc1cccc2c1N(C)C([2H])([2H])c1ccc(C(F)(F)F)nc1-2 [Compound 25, 6-(cyclopropanecarboxamido)-N-(methyl-d3)-4-((6-methyl-2-(trifluoromethyl)-5,6-dihydrobenzo[h][1,6]naphthyridin-7-yl-5,5-d2)amino)nicotinamide] | 30 to 300 |  | 300 to 1000 |  |  |  |  | 
[2H]C([2H])([2H])NC(=O)c1cnc(NC(=O)C2CC2)cc1Nc1cccc2c1N(C)C([2H])([2H])c1cccnc1-2 [Compound 20, 6-(cyclopropanecarboxamido)-N-(methyl-d3)-4-((6-methyl-5,6-dihydrobenzo[h][1,6]naphthyridin-7-yl-5,5-d2)amino)nicotinamide] | < 30 | 30 to 300 | < 30 |  |  |  | > 1000 | 
CNC(=O)c1cnc(NC(=O)C2CC2)cc1Nc1cccc2c1N(C)Cc1cccnc1-2 [Compound 15, 6-(cyclopropanecarboxamido)-N-methyl-4-((6-methyl-5,6-dihydrobenzo[h][1,6]naphthyridin-7-yl)amino)nicotinamide] | < 30 | 30 to 300 | < 30 |  |  |  | > 1000 | 
